From US20250171451A1, “NOVEL HETEROCYCLIC COMPOUND AND PHARMACEUTICAL COMPOSITION COMPRISING SAME” (Samjin Pharmaceutical Co., Ltd., priority 2022, published 2025)

Columns and labels:
[1] = target: T1, recombinant GST-TEAD1 proteins (209 to 426 a.a.) (Homo sapiens, UniProt P28347); test: Evaluation of palmitoylation of TEAD protein; type: biochemical; conditions: 5 μM compound, 15 minutes preincubation, 3 μM alkyne palmitoyl-CoA 30 minutes, pH 6.4, vs DMSO control
T1 construct: recombinant GST-TEAD1 proteins (209 to 426 a.a.)
T1 sequence (P28347 209-426): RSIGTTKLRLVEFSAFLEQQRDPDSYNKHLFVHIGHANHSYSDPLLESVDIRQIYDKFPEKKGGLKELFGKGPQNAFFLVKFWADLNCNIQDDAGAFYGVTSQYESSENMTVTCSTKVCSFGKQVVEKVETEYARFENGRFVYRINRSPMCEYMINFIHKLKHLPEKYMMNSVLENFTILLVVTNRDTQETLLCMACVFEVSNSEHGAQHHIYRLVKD
Procedure, shortened: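 GST-TEAD1 (aa 209–426) preincubated 15 min with 5 μM compound, then autopalmitoylated 30 min with 3 μM alkyne palmitoyl-CoA in 50 mM MES pH 6.4; stopped with 1% SDS. Click biotinylation, SDS-PAGE and streptavidin-HRP blot; band intensity relative to DMSO control, normalised to anti-GST signal.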

[2] = system: NF2-deficient mesothelioma cell line NCI-H226; test: Evaluation of inhibition of cancer cell proliferation (CellTiter-Glo); type: cell-based; conditions: Homo sapiens, 120 h, NCI-H226 cells, five days treatment, 2% FBS, read-out: Cancer cell growth inhibition NCI-H226 (GI50)
Description: The NF2-deficient mesothelioma cell line NCI-H226 was purchased from ATCC (#CRL-5826). NCI-H226 cells were cultured in RRPMI medium (ATCC) containing penicillin (100 units/mL), streptomycin (100 μg/mL) and 10% fetal bovine serum (FBS) at 37° C. and 5% CO2.
In 24 hours after dispensing said NCI-H226 cells into a 96-well plate, the cell culture medium was removed all, and then each compound corresponding to a certain concentration section (0.01, 0.05, 0.1, 0.5, 1, 5, 10 μM) or a vehicle solvent (final 1% DMSO) was diluted with a culture medium containing 2% FBS, treated at 100 μL for each well, and then cultured at 37° C. and 5% CO2. In five days after said treatment, CellTiter-Glo@2.0 Reagent (Promega) was treated in the same amount as the culture medium to measure cell growth, and placed in a shaker for two minutes so as to be well mixed, after which the plate was cultured at room temperature for ten minutes to stabilize a luminescence signal. After that, for ATP measurement through an intracellular luciferase reaction, the luminescence signal was measured using a microplate reader (TECAN). The value of the […] (GI50) at the moment when the cell proliferation was reduced by half was derived using the SoftMax Pro 5.4.1 program, and the results are shown in table 10 below.

[3] = system: TEAD response element (TRE) luciferase reporter in MCF-7 cell lines; test: TEAD response element (TRE) reporter assay; type: cell-based; conditions: 0.2 μM compound, 24 hours, MCF-7 TEAD reporter cells, relative to vehicle (1% DMSO); for inhibition at 0.2 µM: Homo sapiens, MCF7
Procedure, shortened: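 MCF-7 cells stably carrying a TRE-driven firefly luciferase reporter, treated 24 h after plating with compound at 0.2 μM final (1% DMSO) in serum-free medium for 24 h. Luminescence expressed relative to vehicle control set at 10000.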

Row | Compound | inhibition at 5 µM [1] [%] | GI50 [2] [µM] | inhibition at 0.2 µM [3] [%] | % of inhibition of TEAD1 palmitoylation at 5 μM [1] | % of inhibition of TRE luciferase at 0.2 μM [3]
1 | C=CC(=O)Nc1cnc2c(c1)c(C)cn2Cc1ccc(C(F)(F)F)cc1 [Compound 3, N-(3-methyl-1-(4-(trifluoromethyl)benzyl)-1H-pyrrolo[2,3-b]pyridin-5-yl)acrylamide] | > 80 | 0.07 | > 50 |  | 
2 | C=CC(=O)Nc1cnc2c(c1)c(C)cn2-c1ccc(C(F)(F)F)cc1 [Compound 27, N-(3-methyl-1-(4-(trifluoromethyl)phenyl)-1H-pyrrolo[2,3-b]pyridin-5-yl)acrylamide] | > 80 | 0.08 | > 50 |  | 
3 | C=CC(=O)Nc1cnc2c(c1)c(Br)cn2Cc1ccc(C(F)(F)F)cc1 [Compound 40, N-(3-bromo-1-(4-(trifluoromethyl)benzyl)-1H-pyrrolo[2,3-b]pyridin-5-yl)acrylamide] | > 80 | 0.22 | > 50 |  | 
4 | C=CC(=O)Nc1cnc2c(c1)c(C)nn2-c1ccc(C(F)(F)F)cc1 [Compound 42, N-(3-methyl-1-(4-(trifluoromethyl)phenyl)-1H-pyrazolo[3,4-b]pyridin-5-yl)acrylamide] | > 80 | 0.01 | > 50 |  | 
5 | C=CC(=O)Nc1cnc2c(c1)c(Cl)cn2Cc1ccc(C(F)(F)F)cc1 [Compound 43, N-(3-chloro-1-(4-(trifluoromethyl)benzyl)-1H-pyrrolo[2,3-b]pyridin-5-yl)acrylamide] | > 80 | 0.22 | > 50 |  | 
6 | C=CC(=O)Nc1cnc2c(c1)c(C)cn2-c1cccc(C(F)(F)F)c1 [Compound 50, N-(3-methyl-1-(3-(trifluoromethyl)phenyl)-1H-pyrrolo[2,3-b]pyridin-5-yl)acrylamide] | > 80 | 0.28 | > 50 |  | 
7 | C=CC(=O)Nc1cnc2c(c1)c(C)cn2-c1ccc(Cl)cc1 [Compound 54, N-(1-(4-chlorophenyl)-3-methyl-1H-pyrrolo[2,3-b]pyridin-5-yl)acrylamide] | 40 to 80 | 0.17 | > 50 |  | 
8 | C=CC(=O)Nc1cnc2c(c1)c(C)nn2-c1ccc(Cl)cc1 [Compound 65, N-(1-(4-chlorophenyl)-3-methyl-1H-pyrazolo[3,4-b]pyridin-5-yl)acrylamide] | > 80 | 0.05 | > 50 |  | 
9 | C=CC(=O)Nc1cnc2c(c1)c(C)nn2-c1ccc(OC(F)(F)F)cc1 [Compound 66, N-(3-methyl-1-(4-(trifluoromethoxy)phenyl)-1H-pyrazolo[3,4-b]pyridin-5-yl)acrylamide] | > 80 | 0.05 | > 50 |  | 
10 | C=CC(=O)Nc1cnc2c(c1)c(C)nn2-c1ccc(C(F)(F)F)nc1 [Compound 77, N-(3-methyl-1-(6-(trifluoromethyl)pyridin-3-yl)-1H-pyrazolo[3,4-b]pyridin-5-yl)acrylamide] | 40 to 80 | 0.03 | > 50 |  | 
11 | C=CC(=O)N(C)c1cnc2c(c1)c(C)nn2-c1ccc(C(F)(F)F)cc1 [Compound 86, N-methyl-N-(3-methyl-1-(4-(trifluoromethyl)phenyl)-1H-pyrazolo[3,4-b]pyridin-5-yl)acrylamide] | > 80 | 0.03 | > 50 |  | 
12 | C=CC(=O)N(C)c1cnc2c(c1)c(C)nn2-c1ccc(OC(F)(F)F)cc1 [Compound 90, N-methyl-N-(3-methyl-1-(4-(trifluoromethoxy)phenyl)-1H-pyrazolo[3,4-b]pyridin-5-yl)acrylamide] | > 80 | 0.03 | > 50 |  | 
13 | C=CC(=O)N(C)c1cnc2c(c1)c(C)nn2-c1ccc(Cl)cc1 [Compound 91, N-(1-(4-chlorophenyl)-3-methyl-1H-pyrazolo[3,4-b]pyridin-5-yl)-N-methylacrylamide] | > 80 |  | > 50 |  | 
14 | C=CC(=O)N(C)c1cnc2c(c1)c(C)nn2-c1ccc(C(F)(F)F)nc1 [Compound 92, N-methyl-N-(3-methyl-1-(6-(trifluoromethyl)pyridin-3-yl)-1H-pyrazolo[3,4-b]pyridin-5-yl)acrylamide] | 40 to 80 | 0.05 | > 50 |  | 
15 | C=CC(=O)Nc1cnc2c(c1)c(C)nn2-c1ccc(F)nc1 [Compound 93, N-(1-(6-fluoropyridin-3-yl)-3-methyl-1H-pyrazolo[3,4-b]pyridin-5-yl)acrylamide] | 40 to 80 |  | 30 to 50 |  | 
16 | C=CC(=O)Nc1cnc2c(c1)c(C)nn2-c1cccnc1 [Compound 94, N-(3-methyl-1-(pyridin-3-yl)-1H-pyrazolo[3,4-b]pyridin-5-yl)acrylamide] | < 40 |  | < 30 |  | 
17 | C=CC(=O)Nc1cnc2c(c1)c(C)nn2-c1cnc(C(F)(F)F)nc1 [Compound 95, N-(3-methyl-1-(2-(trifluoromethyl)pyrimidin-5-yl)-1H-pyrazolo[3,4-b]pyridin-5-yl)acrylamide] | 40 to 80 | 0.3 | > 50 |  | 
18 | C=CC(=O)Nc1cnc2c(c1)c(C)nn2-c1ccc(Cl)c(Cl)c1 [Compound 96, N-(1-(3,4-dichlorophenyl)-3-methyl-1H-pyrazolo[3,4-b]pyridin-5-yl)acrylamide] | 40 to 80 |  | > 50 |  | 
19 | C=CC(=O)Nc1cnc2c(c1)c(C)nn2-c1ccc(C(F)(F)F)cn1 [Compound 97, N-(3-methyl-1-(5-(trifluoromethyl)pyridin-2-yl)-1H-pyrazolo[3,4-b]pyridin-5-yl)acrylamide] | < 40 |  | > 50 |  | 
20 | C=CC(=O)Nc1cnc2c(c1)c(C)nn2-c1ccc(O)cc1 [Compound 98, N-(1-(4-hydroxyphenyl)-3-methyl-1H-pyrazolo[3,4-b]pyridin-5-yl)acrylamide] | < 40 |  | < 30 |  | 
21 | C=CC(=O)Nc1cnc2c(c1)c(C)nn2-c1cnc(C(F)(F)F)c(C)c1 [Compound 99, N-(3-methyl-1-(5-methyl-6-(trifluoromethyl)pyridin-3-yl)-1H-pyrazolo[3,4-b]pyridin-5-yl)acrylamide] | 40 to 80 |  | > 50 |  | 
22 | C=CC(=O)Nc1cnc2c(c1)c(C)nn2-c1ccnc(C(F)(F)F)c1 [Compound 100, N-(3-methyl-1-(2-(trifluoromethyl)pyridin-4-yl)-1H-pyrazolo[3,4-b]pyridin-5-yl)acrylamide] | < 40 |  | > 50 |  | 
23 | C=CC(=O)Nc1cnc2c(c1)c(C)nn2-c1cnn(C(F)(F)F)c1 [Compound 101, N-(3-methyl-1-(1-(trifluoromethyl)-1H-pyrazol-4-yl)-1H-pyrazolo[3,4-b]pyridin-5-yl)acrylamide] | 40 to 80 |  | > 50 |  | 
24 | C=CC(=O)Nc1cnc2c(c1)c(C)nn2-c1ccc(N)cc1 [Compound 102, N-(1-(4-aminophenyl)-3-methyl-1H-pyrazolo[3,4-b]pyridin-5-yl)acrylamide] | < 40 |  | < 30 |  | 
25 | C=CC(=O)Nc1cnc2c(c1)c(C)nn2-c1ccc(OC(F)(F)F)nc1 [Compound 103, N-(3-methyl-1-(6-(trifluoromethoxy)pyridin-3-yl)-1H-pyrazolo[3,4-b]pyridin-5-yl)acrylamide] | 40 to 80 |  | > 50 |  | 
26 | C=CC(=O)Nc1cnc2c(c1)c(C)nn2-c1ccc(C#N)cc1 [Compound 104, N-(1-(4-cyanophenyl)-3-methyl-1H-pyrazolo[3,4-b]pyridin-5-yl)acrylamide] | < 40 |  | > 50 |  | 
27 | C=CC(=O)Nc1cnc2c(c1)c(C)nn2-c1cc(Cl)c(Cl)cc1C [Compound 105] | 40 to 80 | 0.26 | > 50 |  | 
28 | N-(1-(4-(trifluoromethyl)benzyl)-1H-pyrazolo[3,4-b]pyridin-5-yl)acrylamide [Compound 5] |  |  |  | A (>80% inhibition) | A (>50% inhibition)
